Where “and” joins values, the source holds several entries; their conditions need not be identical. Equal values may be shown once.
System: salmonella typimurium TA100
Assay: Microorganism reverse mutation test, strain TA100
Conditions: TA100, positive control, 1 μg/plate
Protocol: The principle of this test is to make use of histidine-requiring strains that are not alive without histidine. This test is performed for detecting histidine recovery, which is original strain property, caused by mutagen in a mutant test.
To carry out the microorganism reverse mutation test, the test was conducted on test standard strains, salmonella typimurium TA98, TA100, TA1535 and TA1537 as pre-culture. […] The salmonella typimurium TA100 is a test strain upon the reversion of guanine and cytosine in a gene, and the salmonella typimurium TA102 is a test strain upon the reversion of adenine and thymine.
As a negative control group, distilled water was used.
The respective test materials, positive control group chemicals, distilled water were treated on a plate, and thereafter the number of revertant strains was measured.

SMILES: [N-]=[N+]=[N-] [sodium azide]
- Average number of revertant strains: 1,279 and 1,559
- Number of revertant strains: 1,136 and 1,421 and 1,662 and 1,456
